Columns and labels:
Assay in all cases: relative viability (nuclei count vs DMSO), 5 days (fraction); higher = more cells survive
[1] = compound: COc1cc(Nc2c(C#N)cnc3cc(OCCCN4CCN(C)CC4)c(OC)cc23)c(Cl)cc1Cl [Bosutinib]
How it was run: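 After an overnight hold at 37 °C, lung cancer cell lines in 1536-well plates were pinned with five library-drug doses (not always all listed), each √10 from the next, on vehicle-anchored plates. The cells stayed 5 days without fresh medium, then a one-step fix, permeabilisation and Hoechst stain preceded 4× imaging and MetaXpress nuclear counts. A plate passed only with control CV under 25% and at least one doubling. Viability is the median, over plates, of treated-well nuclei relative to vehicle-well nuclei.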

[2] = compound: COc1cc(Nc2c(C#N)cnc3cc(OCCCN4CCN(C)CC4)c(OC)cc23)c(Cl)cc1Cl [Bosutinib] + CCNC(=O)c1noc(-c2cc(C(C)C)c(O)cc2O)c1-c1ccc(CN2CCOCC2)cc1 [Luminespib] (partner 0.01 µM)
How it was run: (§1)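 The day after seeding in 1536-well plates, lung cancer cell lines were treated by pin tool with a single drug, or with a fixed anchor-drug dose together with five library-drug doses (not always all listed) in √10 steps. After 5 days, a combined fix-and-stain solution (final 0.05% Triton X-100, 1% formaldehyde, 1 ug/ml Hoechst) was added. Nuclei counted on 4× images gave relative viability as treated counts over vehicle counts, reported as the median of duplicate plates.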

[3] = compound: COc1cc(Nc2c(C#N)cnc3cc(OCCCN4CCN(C)CC4)c(OC)cc23)c(Cl)cc1Cl [Bosutinib] + COc1cc2c(Oc3ccc(NC(=O)C4(C(=O)Nc5ccc(F)cc5)CC4)cc3F)ccnc2cc1OCCCN1CCOCC1 [Foretinib] (partner 0.25 µM)
How it was run: as §1

[4] = compound: COc1cc(Nc2c(C#N)cnc3cc(OCCCN4CCN(C)CC4)c(OC)cc23)c(Cl)cc1Cl [Bosutinib] + COc1cccc2cc(-c3nc([C@H]4CC[C@H](C(=O)O)CC4)n4ncnc(N)c34)[nH]c12 [OSI-027] (partner 0.5 µM)
How it was run: as §1

[5] = compound: COc1cc(Nc2c(C#N)cnc3cc(OCCCN4CCN(C)CC4)c(OC)cc23)c(Cl)cc1Cl [Bosutinib] + Cc1cc(Nc2cc(N3CCN(C)CC3)nc(Sc3ccc(NC(=O)C4CC4)cc3)n2)n[nH]1 [Tozasertib] (partner 0.1 µM)
How it was run: as §1

[6] = compound: COc1cc(Nc2c(C#N)cnc3cc(OCCCN4CCN(C)CC4)c(OC)cc23)c(Cl)cc1Cl [Bosutinib] + Cc1nc(Nc2ncc(C(=O)Nc3c(C)cccc3Cl)s2)cc(N2CCN(CCO)CC2)n1 [Dasatinib] (partner 0.075 µM)
How it was run: as §1

[7] = compound: COc1cc(Nc2c(C#N)cnc3cc(OCCCN4CCN(C)CC4)c(OC)cc23)c(Cl)cc1Cl [Bosutinib] + N=C(N)NC(=N)NCCc1ccccc1 [Phenformin] (partner 250 µM)
How it was run: as §1

[8] = compound: COc1cc(Nc2c(C#N)cnc3cc(OCCCN4CCN(C)CC4)c(OC)cc23)c(Cl)cc1Cl [Bosutinib] + CC(=O)Nc1cccc(-n2c(=O)n(C3CC3)c(=O)c3c(Nc4ccc(I)cc4F)n(C)c(=O)c(C)c32)c1 [Trametinib] (partner 0.02 µM)
How it was run: as §1

[9] = compound: COc1cc(Nc2c(C#N)cnc3cc(OCCCN4CCN(C)CC4)c(OC)cc23)c(Cl)cc1Cl [Bosutinib] + CC(=O)c1c(C)c2cnc(Nc3ccc(N4CCNCC4)cn3)nc2n(C2CCCC2)c1=O [Palbociclib] (partner 0.5 µM)
How it was run: as §1

[10] = compound: COc1cc(Nc2c(C#N)cnc3cc(OCCCN4CCN(C)CC4)c(OC)cc23)c(Cl)cc1Cl [Bosutinib] + NC(=O)Nc1cc(-c2cccc(F)c2)sc1C(=O)N[C@H]1CCCNC1 [AZD7762] (partner 0.2 µM)
How it was run: as §1

[11] = compound: COc1cc(Nc2c(C#N)cnc3cc(OCCCN4CCN(C)CC4)c(OC)cc23)c(Cl)cc1Cl [Bosutinib] + Nc1nc2[nH]cc(CCc3ccc(C(=O)N[C@@H](CCC(=O)O)C(=O)O)cc3)c2c(=O)[nH]1 [Pemetrexed] (partner 0.2 µM)
How it was run: as §1

[12] = compound: COc1cc(Nc2c(C#N)cnc3cc(OCCCN4CCN(C)CC4)c(OC)cc23)c(Cl)cc1Cl [Bosutinib] + Nc1ncn([C@H]2C[C@H](O)[C@@H](CO)O2)c(=O)n1 [Decitabine] (partner 2 µM)
How it was run: as §1

[13] = compound: COc1cc(Nc2c(C#N)cnc3cc(OCCCN4CCN(C)CC4)c(OC)cc23)c(Cl)cc1Cl [Bosutinib] + O=C(CCCCCCC(=O)Nc1ccccc1)NO [Vorinostat] (partner 1 µM)
How it was run: as §1

[14] = compound: COc1cc(Nc2c(C#N)cnc3cc(OCCCN4CCN(C)CC4)c(OC)cc23)c(Cl)cc1Cl [Bosutinib] + O=C(c1cc(Cc2n[nH]c(=O)c3ccccc23)ccc1F)N1CCN(C(=O)C2CC2)CC1 [Olaparib] (partner 8 µM)
How it was run: as §1

NCI-H1623
relative viability ([1]; 0.01 µM): 0.891 | relative viability ([1]; 0.03162 µM): 0.95 | relative viability ([1]; 0.1 µM): 0.979 | relative viability ([1]; 1 µM): 0.724 | relative viability ([2]; first compound 0.01 µM): 0.645 | relative viability ([2]; first compound 0.03162 µM): 0.565 | relative viability ([2]; first compound 0.1 µM): 0.517 | relative viability ([2]; first compound 1 µM): 0.497 | relative viability ([3]; first compound 0.01 µM): 0.854 | relative viability ([3]; first compound 0.03162 µM): 0.846 | relative viability ([3]; first compound 0.1 µM): 0.866 | relative viability ([3]; first compound 1 µM): 0.64 | relative viability ([4]; first compound 0.01 µM): 0.432 | relative viability ([4]; first compound 0.03162 µM): 0.418 | relative viability ([4]; first compound 0.1 µM): 0.45 | relative viability ([4]; first compound 1 µM): 0.416 | relative viability ([5]; first compound 0.01 µM): 0.474 | relative viability ([5]; first compound 0.03162 µM): 0.425 | relative viability ([5]; first compound 0.1 µM): 0.428 | relative viability ([5]; first compound 1 µM): 0.399 | relative viability ([6]; first compound 0.01 µM): 0.38 | relative viability ([6]; first compound 0.03162 µM): 0.555 | relative viability ([6]; first compound 0.1 µM): 0.542 | relative viability ([6]; first compound 1 µM): 0.57 | relative viability ([7]; first compound 0.01 µM): 0.534 | relative viability ([7]; first compound 0.03162 µM): 0.591 | relative viability ([7]; first compound 0.1 µM): 0.51 | relative viability ([7]; first compound 1 µM): 0.51

NCI-H1648
relative viability ([1]; 0.01 µM): 1.15 | relative viability ([1]; 0.03162 µM): 0.851 | relative viability ([1]; 0.1 µM): 0.997 | relative viability ([1]; 1 µM): 0.931 | relative viability ([8]; first compound 0.01 µM): 0.548 | relative viability ([8]; first compound 0.03162 µM): 0.501 | relative viability ([8]; first compound 0.1 µM): 0.505 | relative viability ([8]; first compound 1 µM): 0.421 | relative viability ([9]; first compound 0.01 µM): 0.297 | relative viability ([9]; first compound 0.03162 µM): 0.278 | relative viability ([9]; first compound 0.1 µM): 0.26 | relative viability ([9]; first compound 1 µM): 0.341 | relative viability ([4]; first compound 0.01 µM): 0.286 | relative viability ([4]; first compound 0.03162 µM): 0.251 | relative viability ([4]; first compound 0.1 µM): 0.261 | relative viability ([4]; first compound 1 µM): 0.245 | relative viability ([5]; first compound 0.01 µM): 0.594 | relative viability ([5]; first compound 0.03162 µM): 0.447 | relative viability ([5]; first compound 0.1 µM): 0.396 | relative viability ([5]; first compound 1 µM): 0.462 | relative viability ([10]; first compound 0.01 µM): 0.659 | relative viability ([10]; first compound 0.03162 µM): 0.639 | relative viability ([10]; first compound 0.1 µM): 0.838 | relative viability ([10]; first compound 1 µM): 0.61 | relative viability ([11]; first compound 0.01 µM): 0.728 | relative viability ([11]; first compound 0.03162 µM): 0.824 | relative viability ([11]; first compound 0.1 µM): 0.744 | relative viability ([11]; first compound 1 µM): 0.813 | relative viability ([12]; first compound 0.01 µM): 0.471 | relative viability ([12]; first compound 0.03162 µM): 0.622 | relative viability ([12]; first compound 0.1 µM): 0.662 | relative viability ([12]; first compound 1 µM): 0.675 | relative viability ([13]; first compound 0.01 µM): 0.389 | relative viability ([13]; first compound 0.03162 µM): 0.471 | relative viability ([13]; first compound 0.1 µM): 0.541 | relative viability ([13]; first compound 1 µM): 0.511 | relative viability ([14]; first compound 0.01 µM): 0.953 | relative viability ([14]; first compound 0.03162 µM): 0.703 | relative viability ([14]; first compound 0.1 µM): 1.01 | relative viability ([14]; first compound 1 µM): 0.77

Reference: the supplement of paper PMC10307832
